Measurements as given in patent US8748468B2, “Manufacture, compositions and uses of coagulation factor VIIa modulator” (Pharmacyclics, Inc., priority 2007, dated 2014).
Entries after “also recorded” stand apart in the source; their conditions may differ. Read-outs that look alike come from different tables or passages of the source.

Experiments:
[1] = test system: FVIIa-induced IL-8 response in MDA-MB-231 human breast cancer cells; assay: FVIIa-induced IL-8 response in MDA-MB-231 human breast cancer cells; assay type: cell-based; details: 1 μM added to the medium; MDA-MB-231 cells incubated with FVIIa
Text: Secretion of the chemokine IL-8 increased to over 3-fold of baseline.

[2] = Animal PK studies, subcutaneous, rat; details: in vivo, sc, subcutaneous administration, read-out: terminal half-life (t1/2) (converted)
[3] = Animal PK studies, subcutaneous, baboon; assay type: in vivo; details: plasma, sc
[4] = Animal PK studies, subcutaneous bioavailability across species; assay type: in vivo; details: rat, dog, monkey, baboon, plasma, sc; administered subcutaneously in a solution; rats, dogs, monkeys, and baboons
[5] = Pharmacokinetics after intravenous and subcutaneous administration in cynomolgus monkeys; assay type: in vivo; details: for AUC(0-t): read-out: AUC 0-48
Procedure: A study was performed in cynomolgus monkeys with the compound of Formula I to provide information on its pharmacokinetics following intravenous and subcutaneous administration and to determine its subcutaneous bioavailability. The test compound was administered intravenously in a solution (1.76 mg/mL) composition and subcutaneously in a gel composition (107 mg/mL).

Prothrombin (PT) time = assay: Prothrombin time changes in C57BL/6 mice; assay type: in vivo; details: 2 hours following the 4th dose, 45 mg/kg/dose, gel SC twice daily
Procedure: (§1) C57BL/6 mice were dosed with a compound of Formula I in a gel composition by subcutaneous injection twice daily for 2 days. Plasma concentrations of a compound of Formula I were measured by LC-MS/MS at select time points following doses 3 and 4. Following drug administration, plasma levels were elevated in a dose dependent manner reaching 15 ug/ml 3 hours after dose 3 at 45 mg/kg/dose. […] Maximal drug plasma levels reached greater than 30 ug/ml 2 hours following dose 4 at 45 mg/kg/dose and dropped to 13 ug/ml by 4 hours post dosing. […] Prothrombin (PT) times were measured at 0 (predose), 2, 4, and 18 hours after the 4th dose administration.

B16F10 melanoma cells = assay: Lung colonization by B16F10 melanoma cells in mice; assay type: in vivo; details: 1.5 h before and 4.5 h and 24 h after tumor cell inoculation, compared to control vehicle
Procedure: In this experiment, the compound of Formula I was administered subcutaneously 1.5 h before tumor cell inoculation, and then 4.5 h and 24 h after tumor cell inoculation. In the absence of the compound of Formula I (i.e., the vehicle alone), a substantial number of colonies formed in the majority of the inoculated mice. […] As a result, in some embodiments, the compound of Formula I inhibit the metastasis of tumor cells.
The compound of Formula I (3×50 mg/kg; 3×100 mg/kg) and a control vehicle were administered subcutaneously 1.5 hours before tumor cell inoculation and then at 4.5 hours and 24 hours after tumor cell inoculation.

[6] = test system: Lewis lung carcinoma tumor; assay: Lewis lung carcinoma tumor growth in C57BL mice; assay type: in vivo; details: for tumor volume compared to the control: gel formulation SC, 6, 9, 13, and 15 days after start of dosing
Procedure: In this example, the compound of Formula I was administered subcutaneously starting 4 days after tumor cell implantation in the mice (the two different dosing schedules are described in FIG. 2). […] As a result, the compound of Formula I inhibits the growth of tumor cells.
In a follow-up tumor suppression study, the compound of Formula I reduced Lewis lung carcinoma tumor growth in C57BL mice by approximately 50% when given twice daily at subcutaneous doses 22.5, 45, and 90 mg/kg (FIG. 3).
The compound of Formula I was administered in a gel formulation subcutaneously starting 4 days after tumor cell implantation. Tumor volume in the control experiment continued to increase from about 100 mm^3 at 6 days to above 400 mm^3 after 13 days and above 500 mm^3 after 15 days after start of dosing.

[7] = Animal PK studies, subcutaneous, dog; assay type: in vivo; details: plasma, sc
Procedure: In dogs, the time to reach maximum plasma concentrations (Tmax) following subcutaneous injection of a compound of Formula I was 0.5 hours.

[8] = Animal PK studies, subcutaneous, monkey; details: in vivo, sc, subcutaneous administration, read-out: terminal half-life (t1/2)
[9] = Plasma concentrations in C57BL/6 mice (LC-MS/MS); assay type: in vivo; details: for Drug plasma concentrations: all dose levels
Procedure: as §1

[10] = Toxicology study, 28 or 29 days subcutaneous, cynomolgus monkeys; assay type: in vivo; details: for NOAEL: sc
Procedure: Cynomolgus monkeys were administered a gel formulation of a compound of Formula I twice daily by subcutaneous injection for 28 or 29 consecutive days at a total daily dosage of 0 (vehicle), 3, 12, or 36 mg/kg/day (HED=0.96, 3.84, and 11.5 mg/kg/day, respectively).

[11] = subcutaneous administration, read-out: terminal half-life (t1/2) (converted)
[12] = cynomolgus monkey, plasma, sc, Subcutaneous Gel, 10.7 mg/kg, n = 3
[13] = cynomolgus monkey, plasma, Intravenous Solution, 1.76 mg/kg, n = 4

N=C(N)c1ccc2nc(-c3cc(CC(=O)N[C@@H](CC(=O)O)C(=O)O)cc(-c4cc(S(N)(=O)=O)ccc4O)c3O)[nH]c2c1 [compound of Formula I]
FVIIa-induced IL-8 response [1]: completely abrogated | half-life [2]: 2.67 h | half-life [3, 11]: 7.21 h | Tmax ([3]; subcutaneous injection, baboons, read-out: time to reach maximum plasma concentrations (Tmax)): 2.75 h | bioavailability [4]: 95 to 124% | subcutaneous Cmax as percent of the Cmax observed following intravenous dose ([5]; 10.7 mg/kg subcutaneous vs 1.76 mg/kg intravenous): 74% | half-life ([5]; cynomolgus monkey, plasma, iv, 1.76 mg/kg, Intravenous Solution, 1.76 mg/kg, n = 4, read-out: t1/2 α (converted)): 0.162 h | half-life ([5]; cynomolgus monkey, plasma, iv, 1.76 mg/kg, Intravenous Solution, 1.76 mg/kg, n = 4, read-out: t1/2 β (converted)): 2.19 h | half-life ([5]; cynomolgus monkey, plasma, iv, 1.76 mg/kg, Intravenous Solution, 1.76 mg/kg, n = 4, read-out: t1/2 γ (converted)): 7.07 h | half-life ([5]; cynomolgus monkey, plasma, sc, 10.7 mg/kg, Subcutaneous Gel, 10.7 mg/kg, n = 3, read-out: Terminal t1/2 (converted)): 7.43 h | Cmax ([5]; cynomolgus monkey, plasma, sc, Subcutaneous Gel (107 mg/mL), 10.7 mg/kg, n = 3): 11600 ng/mL | AUC(0-inf) [5, 12]: 172 µg·h/mL | CL/F [5, 12]: 1.07 mL/min/kg | Tmax [5, 12]: 3.33 h | AUC(0-t) [5, 12]: 171 µg·h/mL | bioavailability ([5]; cynomolgus monkey, plasma, sc, Subcutaneous Gel, single 10.7 mg/kg dose, n = 3, estimated, read-out: Bioavailabilty (subcutaneous)): 138 ± 33% | Cmax [5, 13]: 15700 ng/mL | MRT [5, 13]: 5.15 h | clearance [5, 13]: 1.4 mL/min/kg | AUC(0-t) [5, 13]: 21.2 µg·h/mL | Vd ([5]; cynomolgus monkey, plasma, Intravenous Solution, 1.76 mg/kg, n = 4, read-out: Vss): 0.43 L/kg | maximal change in PT time (Prothrombin (PT) time): 1.8 times baseline | Bl6F10 colonies formed in the lung (B16F10 melanoma cells; 3×50 mg/kg SC, 50 mg/kg): substantially fewer colonies were formed | Bl6F10 colonies formed in the lung (B16F10 melanoma cells; 3×100 mg/kg SC, 100 mg/kg): substantially fewer colonies; also recorded: the number of colonies further dropped | reduction in tumor volume ([6]; SC starting 4 days after tumor cell implantation, depending on the dosing schedule, p<0.01): ≥ 50% | reduction of Lewis lung carcinoma tumor growth ([6]; follow-up study, twice daily subcutaneous doses 22.5, 45, and 90 mg/kg): approximately 50% | tumor volume compared to the control ([6]; 100 mg/kg bid x4d followed by 60 mg/kg bid, P<0.01): a reduction in the tumor volume | tumor volume compared to the control ([6]; 150 mg/kg bid x4d followed by 90 mg/kg bid, P≦0.01): a reduction in the tumor volume | half-life [7, 11]: 5.68 h | Tmax ([7]; subcutaneous injection, dogs, read-out: time to reach maximum plasma concentrations (Tmax)): 0.5 h | half-life [8]: 5.4 to 8.14 h | Drug plasma concentrations ([9]; 6 hours after dose 3): had dropped significantly | Drug plasma concentrations ([9]; 18 hours following dose 4): at or near baseline | Drug plasma concentration ([9]; gel SC twice daily, 2 hours following dose 4 at 22.5 mg/kg/dose): 11000 ng/mL | Maximal drug plasma level ([9]; gel SC twice daily, 2 hours following dose 4 at 45 mg/kg/dose): greater than 30 ug/ml | plasma level ([9]; gel SC twice daily, 3 hours after dose 3 at 45 mg/kg/dose): 15000 ng/mL | Drug plasma concentration ([9]; gel SC twice daily, 4 hours following dose 4 at 22.5 mg/kg/dose): stayed elevated | drug plasma level ([9]; gel SC twice daily, 4 hours post dose 4 at 45 mg/kg/dose): 13000 ng/mL | sternum-bone marrow and spleen findings ([10]; cynomolgus monkey, in vivo): shifts indicative of increased erythropoiesis | kidney medulla finding ([10]; cynomolgus monkey, in vivo, 36 mg/kg/day): minimal to mild widening of the interstitium along the medullary rays | NOAEL ([10]; cynomolgus monkey, in vivo): 3 mg/kg/day | NOAEL ([10]; cynomolgus monkey, in vivo, subcutaneous administration for 28 or 29 consecutive days, read-out: NOAEL as HED): 0.96 mg/kg/day | unscheduled euthanasia ([10]; one female, 36 mg/kg/day group, abnormally high aPTT prior to dosing): euthanized after 3 days of dosing due to severe external hemorrhage
